Values joined by “and” are separate entries in the source; they are usually repeats but may differ in a detail not shown here. Identical values can stand only once. Like-named read-outs stand apart in the source and are kept apart here.
Legend:
[1] = Microsomal stability assay, human; assay type: in vitro ADME; conditions: for T1/2: human liver microsomes, 0.5 μM
Experimental: (§1) Microsomal Stability Assay. […] For metabolite identification, the reaction mixture was incubated for 2 h with 50 μM test compound concentration under the previously described conditions. The supernatants were analyzed using a Water Xevo G2-S high resolution mass spectrometer.

[2] = Microsomal stability assay, rat; assay type: in vitro ADME; conditions: for T1/2: rat liver microsomes, 0.5 μM
Experimental: as §1

LNCaP cells = assay: SRB cytotoxicity assay, LNCaP prostate cancer cells; assay type: cell-based, human; conditions: androgen sensitive prostate cancer LNCaP cells
Experimental: (§2) Cell Culture and Cytotoxicity Assay of Prostate Cancer and Melanoma. […] Melanoma cells were cultured in DMEM, supplemented with 5% FBS, 1% antibiotic/antimycotic mixture (Sigma-Aldrich, Inc., St. Louis, Mo., USA) and bovine insulin (5 μg/ml; Sigma-Aldrich).

[3] = system: melanoma and prostate cancer cell lines; assay: SRB cytotoxicity assay, melanoma and prostate cancer cell lines; assay type: cell-based; conditions: SRB 96 h
Experimental: as §2

A375 cells = assay: SRB cytotoxicity assay, A375 melanoma cells; assay type: cell-based; conditions: for IC50: SRB assay after 96 h of treatment, read-out: IC50 against A375 cells
Experimental: as §2

Bovine brain tubulin = target: T1, Bovine brain tubulin (Bos taurus, UniProt P81947+Q6B856); assay: In vitro tubulin polymerization assay; assay type: biochemical; conditions: for inhibition at 5 µM / inhibition at 10 µM: after 20 min incubation, compared to vehicle; for Inhibition of tubulin polymerization relative to colchicine (in words): 5 and 10 μM
T1 construct: Bovine brain tubulin (0.4 mg, >97% pure) (Cytoskeleton, Denver, Colo.); purchased Cytoskeleton, Denver, Colo; host or cells: bovine brain tissue
Experimental: In Vitro Tubulin Polymerization Assay. […] […] The spectrophotometer was set at 37° C. for tubulin polymerization. […] DMSO was used as a blank control.

[4] = Microsomal stability assay, mouse; assay type: in vitro ADME; conditions: for T1/2: mouse liver microsomes, 0.5 μM
Experimental: as §1

[5] = Metabolite identification in liver microsomes; assay type: in vitro ADME; conditions: 50 μM, 2 h incubation, high resolution MS
Experimental: as §1
We utilized a high resolution mass spectrometer for the identification of the metabolites with a mass error of less than 2 ppm generally. The detailed information regarding the mass spectrum and the chromatogram of each of the metabolites are presented in the supplementary materials. […] M4 (identified by mass spectrum 388.12 [M+1]) was the product that resulted from ketone reduction and it was further hydroxylated to M5 (identified by mass spectrum 404.12 [M+1]) at a position that was unidentifiable due to limited information. […] M7 (deamination) (identified by mass spectrum 370.11 [M+1]) was a minor product. […] M9 (identified by mass spectrum 386.15 [M+1]) and M10 (identified by mass spectrum 416.16 [M+1]) had more than one possible structure as indicated in the chromatograms. For 7 (FIG. 11), various metabolites including 0-demethylation (M12) (identified by mass spectrum 387.15 [M+1]), mono-hydroxylation (M14) (identified by mass spectrum 417.16 [M+1]), O-demethylation followed by mono-hydroxylation (M11) (identified by mass spectrum 403.14 [M+1]), and dihydroxylation (M13) (identified by mass spectrum 433.15 [M+1]) were detected.

[6] = system: K562 human leukemia cells; conditions: read-out: IC50 against K562 human leukemia cells; cited from earlier work
[7] = Microsomal stability, liver microsomes over tested species; assay type: in vitro ADME
Experimental: as §1

T1 sequence (Q6B856 whole entry): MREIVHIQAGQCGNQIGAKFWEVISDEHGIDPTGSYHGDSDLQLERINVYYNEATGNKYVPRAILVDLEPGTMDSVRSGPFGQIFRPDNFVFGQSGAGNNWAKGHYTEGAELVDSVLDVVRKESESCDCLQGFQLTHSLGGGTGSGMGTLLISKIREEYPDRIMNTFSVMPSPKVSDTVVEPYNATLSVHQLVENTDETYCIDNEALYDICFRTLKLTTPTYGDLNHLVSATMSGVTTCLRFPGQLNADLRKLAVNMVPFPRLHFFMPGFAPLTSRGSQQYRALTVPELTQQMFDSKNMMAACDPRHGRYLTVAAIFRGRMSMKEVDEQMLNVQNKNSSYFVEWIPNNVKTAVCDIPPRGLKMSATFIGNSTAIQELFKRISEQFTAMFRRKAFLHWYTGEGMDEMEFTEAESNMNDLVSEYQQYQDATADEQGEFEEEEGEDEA
T1 sequence (P81947 whole entry): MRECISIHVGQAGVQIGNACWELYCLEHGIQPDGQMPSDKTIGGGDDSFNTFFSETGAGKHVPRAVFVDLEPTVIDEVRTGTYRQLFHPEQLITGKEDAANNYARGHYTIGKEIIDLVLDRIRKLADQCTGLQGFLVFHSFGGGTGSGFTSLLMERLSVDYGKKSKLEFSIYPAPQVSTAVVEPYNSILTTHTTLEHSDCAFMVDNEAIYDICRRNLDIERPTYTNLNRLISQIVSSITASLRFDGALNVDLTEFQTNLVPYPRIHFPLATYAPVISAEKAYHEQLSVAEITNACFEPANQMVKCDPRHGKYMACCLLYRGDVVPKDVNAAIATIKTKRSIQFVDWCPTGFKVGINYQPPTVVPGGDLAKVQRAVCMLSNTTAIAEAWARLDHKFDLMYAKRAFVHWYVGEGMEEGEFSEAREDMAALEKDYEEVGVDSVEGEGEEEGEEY

Row | Structure (SMILES) | T1/2 [1] | T1/2 [2] [min] | Antiproliferative activity (in words) [3] | T1/2 [4] | Major metabolites / metabolic pathway [5] | also measured
1 | COc1cc(-c2nccc3[nH]c(-c4ccc5[nH]ccc5c4)nc23)cc(OC)c1OC [Compound 7, 2-(1H-Indol-5-yl)-4-(3,4,5-trimethoxyphenyl)-1H-imidazo[4,5-c]pyridine] | 45 min and 45.3 ± 2.0 min | 30.4 ± 1.9 | increased potency | 19.7 ± 0.7 min | formed very evenly with similar relative amount | IC50 improvement compared to 10 and 4 (LNCaP cells): at least 5 fold; IC50 improvement compared to 10 and 4 (A375 cells; melanoma A375 cells): at least 5 fold; inhibition at 5 µM (Bovine brain tubulin): ~33%; inhibition at 10 µM (Bovine brain tubulin): ~81%; Inhibition of tubulin polymerization relative to colchicine (in words) (Bovine brain tubulin): stronger inhibition than colchicine
2 | COc1ccc(/C=C(\C)C(=O)c2cc(OC)c(OC)c(OC)c2)cc1O [SD400] |  |  |  |  |  | IC50 [6]: 0.21 nM
3 | COc1cc(C(=O)c2csc(Nc3ccc4[nH]ccc4c3)n2)cc(OC)c1OC [Compound 33, (2-((1H-Indol-5-yl)amino)thiazol-4-yl)(3,4,5-trimethoxyphenyl)methanone] |  |  | excellent growth inhibition |  |  | IC50 change compared to PAT (prostate cancer cells): 2-3 fold
4 | COc1cc(C(=O)c2csc(-c3ccccc3)n2)cc(OC)c1OC [Compound 10, reference compound] | 17 min | 31 |  | <<5 min |  | IC50 (A375 cells): 28 nM
5 | COc1cc(C(=O)c2c[nH]c(Nc3ccccc3)n2)cc(OC)c1OC [Compound 27, (2-(Phenylamino)-1H-imidazol-4-yl)(3,4,5-trimethoxyphenyl)methanone] |  |  | did not demonstrate any activity |  |  | 
6 | COc1cc(-c2cccc3[nH]c(-c4c[nH]c5ccccc45)nc23)cc(OC)c1OC [Compound 4, 2-(1H-Indol-3-yl)-4-(3,4,5-trimethoxyphenyl)-1H-benzo[d]imidazole] | 50.7 ± 1.2 min |  | comparable potency |  | O-demethylation (M9) and mono-hydroxylation (M10) | half-life at 0.5 μM ([1]; human, pooled liver microsomes, pH 7.4, human liver microsomes): 51 min; half-life at 0.5 μM ([2]; pH 7.4, rat liver microsomes): 72.3 ± 4.6 min; inhibition at 5 µM (Bovine brain tubulin): 30%; inhibition at 10 µM (Bovine brain tubulin): 60%; Inhibition of tubulin polymerization relative to colchicine (in words) (Bovine brain tubulin): stronger inhibition than colchicine; half-life at 0.5 μM ([4]; pH 7.4, mouse liver microsomes): 53.5 ± 2.4 min
7 | COc1cc(C(=O)c2csc(-c3ccccc3)n2)cc(OC)c1OCCN1C(=O)c2ccccc2C1=O [Compound 17, 2-(2-(2,6-Dimethoxy-4-(2-phenylthiazole-4-carbonyl)phenoxy)ethyl)isoindoline-1,3-dione] |  |  | micromolar range potency |  |  | 
8 | COCOc1c(OC)cc(C(=O)c2csc(-c3ccccc3)n2)cc1OC [Compound 15, (3,5-Dimethoxy-4-(methoxymethoxy)phenyl)(2-phenylthiazol-4-yl)methanone] | 7.8 ± 0.3 min | 9.7 ± 0.4 | improved activity | 4.0 ± 0.3 min | removal of the MOM group to form M1 | IC50 (A375 cells; Homo sapiens, A-375): 20 nM; Metabolic stability (in words) ([7]; any of the tested liver microsomes): did not improve its metabolic stability; half-life at 0.5 μM ([7]; pH 7.4, human, mouse, rat liver microsomes, read-out: T1/2 over tested species liver microsomes): < 10 min
9 | COc1cc(C(=O)c2csc(-c3ccccc3)n2)cc(OC)c1OC(=O)CCl [Compound 12, 2,6-Dimethoxy-4-(2-phenylthiazole-4-carbonyl)phenyl 2-chloroacetate] |  |  | dropped significantly |  |  | 
